# Earlier results, collected in patent US8207181B2, “Substituted dihydro, trihydro and tetrahydro cycloalkyloxazolopyrimidinones, preparation and use thereof” (Sanofi, priority 2008, dated 2012).
# Experiments:
# healthy human subjects = settings: pretreatment
# [1] = test system: pentylenetetrazole- and picrotoxin-induced seizures
# schizophrenia = settings: compared to placebo
# animal models = settings: some animal models
smiles,measurement,setting,value
N[C@H](C(=O)O)c1ccc(C(=O)O)c(O)c1 [(S)-4-carboxy-3-hydroxyphenylglycine],protection against audiogenic seizures,DBA/2 mice,protects against audiogenic seizures
N[C@@]1(C(=O)O)CC[C@H]2[C@H](C(=O)O)[C@H]21 [LY354740],effect on ketamine disruption of working memory,healthy human subjects,"attenuation of the disruptive effects of the NMDA glutamate receptor antagonist, ketamine, on working memory"
same,effect on chemically induced seizures,[1],attenuates pentylenetetrazole- and picrotoxin-induced seizures
N[C@@]1(C(=O)O)CO[C@H]2[C@H](C(=O)O)[C@H]21 [LY379268],effect on REM sleep and fast EEG,rat,suppresses rapid eye movement (REM) sleep and fast EEG
CSCC[C@H](N)C(=O)N[C@@]1(C(=O)O)CS(=O)(=O)[C@H]2[C@H](C(=O)O)[C@H]21 [LY2140023],improvement in positive and negative symptoms of schizophrenia,schizophrenia,statistically significant improvements in both positive and negative symptoms of schizophrenia
N[C@]1(C(=O)O)[C@H]2[C@@H](C[C@H]1OCc1ccc(Cl)c(Cl)c1)[C@]2(F)C(=O)O [MGS0039],antidepressant-like effects,animal models,dose-dependent antidepressant-like effects
Cc1c(OCc2cccc(-c3ccc(C(=O)O)cc3)c2)cc2c(c1C)C(=O)C(C1CCCC1)C2 (stereo not shown) [biphenyl-indanone A],antipsychotic- and anxiolytic-like effects,mice,antipsychotic- and anxiolytic-like effects
